Source: patent US20260337172A1, “AMINOPIPERAZINES WITH BROAD SPECTRUM ANTIMICROBIAL ACTIVITY” (The United States Government as represented by the …, priority 2022, published 2026)
In brackets after ≈: the same amount, converted by molar mass. Where two headings read alike, the source gives them in different places.

Test system: C. auris
Test: minimum inhibitory concentration, C. auris (Table 3)
Type: cell-based, Candida auris
Settings: Candidozyma auris
From the text: Table 2 and Table 3 below show the minimum inhibitory concentration values for the synthesized compounds as tested on bacterial strains.

[1] = 50% inhibition, first of two values in cell, read-out: minimum inhibitory concentration, C. auris 50% inhib.
[2] = 50% inhibition, second of two values in cell, read-out: minimum inhibitory concentration, C. auris 50% inhib.
[3] = 90% inhibition, first of two values in cell, read-out: minimum inhibitory concentration, C. auris 90% inhib.
[4] = 90% inhibition, second of two values in cell, read-out: minimum inhibitory concentration, C. auris 90% inhib.

| SMILES | MIC [1] [µg/mL] | MIC [2] [µg/mL] | MIC [3] [µg/mL] | MIC [4] [µg/mL] |
| --- | --- | --- | --- | --- |
| CN1CCN(/N=C/c2ccc([N+](=O)[O-])cc2)CC1 [Compound 4] | 256 (≈ 1030 µM) | 256 (≈ 1030 µM) | > 256 | > 256 |
| C[C@@H]1[C@H](O)[C@@H](C)/C=C/C=C/C=C/C=C/C=C/C=C/C=C/[C@H](O[C@@H]2O[C@H](C)[C@@H](O)[C@H](N)[C@@H]2O)C[C@@H]2O[C@](O)(C[C@@H](O)C[C@@H](O)[C@H](O)CC[C@@H](O)C[C@@H](O)CC(=O)O[C@H]1C)C[C@H](O)[C@H]2C(=O)O [Amphotericin B, reference compound] | 1 (≈ 1.08 µM) | 1 (≈ 1.08 µM) | 1 (≈ 1.08 µM) | 1 (≈ 1.08 µM) |
| COc1ccc(/C=N/N2CCN(C)CC2)c2ccccc12 [Compound 5, (E)-1-(4-methoxynaphthalen-1-yl)-N-(4-methylpiperazin-1-yl)methanimine] | 128 (≈ 452 µM) | 128 (≈ 452 µM) | 256 (≈ 903 µM) | 256 (≈ 903 µM) |
| COc1cccc(/C=N/N2CCN(C)CC2)c1O [Compound 20] | 128 (≈ 513 µM) | 128 (≈ 513 µM) | 256 (≈ 1030 µM) | 256 (≈ 1030 µM) |
| CN1CCN(/N=C/c2ccc(-c3ccccc3)cc2)CC1 [Compound 17] | 64 (≈ 229 µM) | 64 (≈ 229 µM) | 128 (≈ 458 µM) | 128 (≈ 458 µM) |
| CN1CCN(/N=C/c2ccc(Cl)c([N+](=O)[O-])c2)CC1 [Compound 3] | 256 (≈ 905 µM) | 128 (≈ 453 µM) | 256 (≈ 905 µM) | 256 (≈ 905 µM) |
